Reference: ChEMBL document CHEMBL1147625, “HIV-1 integrase pharmacophore model derived from diverse classes of inhibitors” (Bioorg Med Chem Lett, 2004)
pIC50: −log10 of the molar value.

Molecular target: Human immunodeficiency virus type 1 integrase (Human immunodeficiency virus 1, UniProt Q7ZJM1)
Sequence (Q7ZJM1 whole entry): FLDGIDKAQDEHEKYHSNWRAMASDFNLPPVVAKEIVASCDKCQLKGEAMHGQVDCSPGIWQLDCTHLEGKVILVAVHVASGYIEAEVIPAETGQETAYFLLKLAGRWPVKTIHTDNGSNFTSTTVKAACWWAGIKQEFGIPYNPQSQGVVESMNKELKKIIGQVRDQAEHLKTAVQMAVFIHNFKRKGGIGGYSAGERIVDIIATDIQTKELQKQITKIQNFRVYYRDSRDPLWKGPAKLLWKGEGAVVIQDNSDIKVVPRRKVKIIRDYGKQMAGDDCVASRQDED
Description: Inhibitory activity against HIV-1 integrase

Row | Structure (SMILES) | pIC50
1 | [N-]=[N+]=NC1CC(N=[N+]=[N-])c2cc(/C(O)=C\C(=O)C(=O)O)ccc21 (stereo not drawn) | 6.44
2 | [N-]=[N+]=NC1CCC(N=[N+]=[N-])c2cc(/C(O)=C\C(=O)C(=O)O)ccc21 (stereo not drawn) | 6.49
3 | [N-]=[N+]=NCc1ccc(/C(O)=C\C(=O)C(=O)O)cc1CN=[N+]=[N-] | 6.59
4 | COc1cc(C)c2c(c1C)OC(=O)c1c(C)c(Cl)c(O)c(C=O)c1O2 | 5.68
5 | CC1=NN(C(=O)c2ccccc2O)C(=O)/C1=C\c1cccc(O)c1 | 5.13
6 | CCCCCc1cc(O)cc2c1Oc1c(C=O)c(O)c(Cl)c(C(=O)CCCC)c1C(=O)O2 | 4.47
7 | O=C(O)C(=O)/C=C(\O)c1cc(OCc2ccccc2)cc(OCc2ccccc2)c1 | 7.23
8 | O=C(NNCC(O)COc1ccccc1)c1ccccc1O (stereo not drawn) | < 3.70
9 | CC1C=C(NC(=O)C2=CC(NC(=O)C3=CC(NC(=O)c4ccc(C(=O)NC5=CC(C)C(C(=O)NC6=CC(C)C(C(=O)NC7=CC(C)C(C(=O)NCCC(=N)N)=C7)=C6)=C5)nc4)=CC3C)=CC2C)C=C1C(=O)NCCC(=N)N (stereo not drawn) | 7.00
10 | COc1ccc(/C=C2\C(=O)N(C(=O)c3ccccc3O)N=C2C)cc1 | 6.22
11 | CC1=NN(C(=O)c2ccc(Cl)cc2)C(=O)/C1=C\c1ccc(O)cc1 | < 3.53
12 | O=C(/C=C/c1ccc(O)c(O)c1)NCC(OC(=O)/C=C/c1ccc(O)c(O)c1)C(=O)O (stereo not drawn) | 6.43
13 | CC(Cc1ccc(O)c(O)c1)(C(=O)O)C(C)(Cc1ccc(O)c(O)c1)C(=O)O (stereo in doubt; form 1) | 6.36
14 | CC(Cc1ccc(O)c(O)c1)(C(=O)O)C(C)(Cc1ccc(O)c(O)c1)C(=O)O (stereo in doubt; form 2) | 6.64

Continued, values first:

Row | pIC50 | Structure (SMILES)
15 | 5.82 | N#CCCc1cccc(/C(O)=C\C(=O)C(=O)O)c1
16 | 7.05 | CC1C=C(NC(=O)C2=CC(NC(=O)C3=CC(NC(=O)c4ccc(C(=O)NC5=CC(C)C(C(=O)NC6=CC(C)C(C(=O)NC7=CC(C)C(C(=O)NCCC(=N)N)=C7)=C6)=C5)cc4)=CC3C)=CC2C)C=C1C(=O)NCCC(=N)N (stereo not drawn)
17 | < 4.00 | O=C1C(O)=C(C(C2=C(O)C(=O)c3ccccc3C2=O)c2ccc(Cl)cc2)C(=O)c2ccccc21
18 | 6.01 | CC(CCC(=O)O)C1CC[C@H]2[C@@H]3C(OC(=O)/C=C/c4ccc(O)c(O)c4)CC4CC(OC(=O)/C=C/c5ccc(O)c(O)c5)CC[C@]4(C)[C@H]3CC(OC(=O)/C=C/c3ccc(O)c(O)c3)[C@]12C (stereo partly drawn)
19 | 3.91 | COC(=O)c1ccc(CC(=O)c2c(C)cc(O)c(C=O)c2O)c(C)c1O
20 | 3.00 | CN(C)Cc1ccc2n1Cc1ccccc1SC2c1ccc(F)cc1 (stereo not drawn)
21 | 3.49 | O=C1c2ccccc2SCC2CSC(c3ccccc3)N12 (stereo not drawn)
22 | 4.70 | COc1cc(C(C2=C(O)C(=O)c3ccccc3C2=O)C2C(=O)c3ccccc3C(=O)C2O)cc(Br)c1O (stereo not drawn)
23 | 7.15 | CC1C=C(NC(=O)C2=CC(NC(=O)C3=CC(N(C)C(=O)c4ccc(C(=O)N(C)C5=CC(C)C(C(=O)NC6=CC(C)C(C(=O)NC7=CC(C)C(C(=O)NCCCN(C)C)=C7)=C6)=C5)cc4)=CC3C)=CC2C)C=C1C(=O)NCCCN(C)C (stereo not drawn)
